The text below walks through data of US20250195453A1, “NOVEL ANTIBIOTIC WITH QUORUM SENSING INHIBITOR ACTIVITY” (priority 2022, published 2025).

One test deals with C. violaceum. Briefly: Viability assay (resazurin) of C. violaceum in parallel to quorum sensing assay. Format: cell-based, Chromobacterium violaceum. As to conditions: assays in parallel with the quorum sensing assays. On the procedure: To ascertain that reduced OD562 signal is due to inhibition of quorum sensing and not merely due to reduced viability of bacteria, a viability assay may be done in parallel to the quorum sensing assay. To assess viability of bacteria, C. violaceum bacteria are grown o/n at 27° C. in TSB medium. The bacteria are diluted 1000× in TSB medium and grown until OD600=0.5-0.7. The bacteria are resuspended in TSB medium containing compound and incubated at 27° C. for 20 h. Bacteria are collected by centrifugation for 10 min at 3000 rpm. Supernatant is aspirated and resazurin (150 μg/mL in physiological salt solution) is added. Plates are incubated for another 45 min at 27° C. and fluorescence is measured by excitation at 540 nm and emission at 590 nm. If the fluorescent signal is less than 70% of the fluorescent signal of control untreated bacteria, the sample is scored as having an effect on viability of the bacteria.
C. violaceum bacteria were grown o/n in tryptic soy broth at 27° C. The bacteria were diluted in TSB and grown until OD600=0.5-0.7. […] The plates were centrifuged again for 10 min at 3000 rpm and 100 μL of the supernatant containing the violacein was transferred to a new 96-well plate and the violacein production was quantified by measuring the OD562 on an ASYS expert plus microplate reader. […]

The subject of test [1] is violacein production in C. violaceum. Briefly: Quorum sensing assay: violacein production in C. violaceum. In kind it is cell-based, Chromobacterium violaceum. The note with it: funalenone up to 1 mM.
Procedure: C. violaceum bacteria were grown o/n in tryptic soy broth at 27° C. The bacteria were diluted in TSB and grown until OD600=0.5-0.7. Bacteria were diluted 1:1000 and 50 μL bacterial suspension was transferred to 96-well plates containing 50 μL fungal filtrate, extract or purified compound in a range of concentrations. […] Plates were incubated for 20 h at 27° C. while shaking at 180 rpm. Plates were centrifuged for 10 min at 3000 rpm to precipitate the violacein. Supernatant was aspirated and the pellet was resuspended in 200 μL 96% ethanol. The plates were centrifuged again for 10 min at 3000 rpm and 100 μL of the supernatant containing the violacein was transferred to a new 96-well plate and the violacein production was quantified by measuring the OD562 on an ASYS expert plus microplate reader.
The subject of another test is rhlA-GFP reporter. Briefly: PAO1 quorum sensing reporter assay, rhlA-GFP. As to conditions: funalenone concentrations up to 500 μM. In kind it is cell-based, Pseudomonas aeruginosa (PAO1). On the procedure:
(§1) Quorum sensing activity in PAO1 cells can be assessed by a the person skilled in the art, preferably by a quorum sensing reporter assay as exemplified herein. PAO1 reporters express green fluorescent protein under the control of the lasB promoter, the rhlA promoter, the pqsA promoter or a constitutive promoter, PA1/04/03. Reporter bacteria are inoculated in AB minimal media supplemented with 0.5% glucose and 0.5% casamino acids. Cultures are diluted in physiological salt solution to an OD450=0.1-0.2 before addition to AB medium with a range of concentrations of compound. The GFP fluorescence (excitation 485 nm, emission 535 nm) and absorbance (600 nm) are determined every 15 min for 15 h at 34° C. IC50 values are calculated based on the maximum slope of GFP/OD. If the IC50 on reporter lines is less than half of the IC50 on control bacteria, the compound is scored as quorum sensing inhibitor.
(§2) To test the potential of paecilomycone as quorum sensing inhibitor in more clinically relevant bacteria, the effect on P. aeruginosa (PAO1) was tested. […] To correct for potential effects on bacterial growth, the OD600 was determined in parallel with GFP fluorescence intensity and RFU/OD was plotted.

The test system of the next test is WT-GFP. Format: cell-based, Pseudomonas aeruginosa (PAO1). As to conditions: funalenone concentrations up to 500 μM. On the procedure:
as §1, §2

Another test has as its system pqsA-GFP reporter. Briefly: PAO1 quorum sensing reporter assay, pqsA-GFP. In kind it is cell-based, Pseudomonas aeruginosa (PAO1). As to conditions: funalenone concentrations up to 500 μM. On the procedure:
as §1, §2

The test system of a further test is lasB-GFP reporter. Briefly: PAO1 quorum sensing reporter assay, lasB-GFP. The note with it: funalenone concentrations up to 500 μM. Format: cell-based, Pseudomonas aeruginosa (PAO1). On the procedure:
as §1, §2

As for `COC1=C(O)c2c(O)cc(C)c3c(O)cc(O)c(c23)C1=O` [funalenone], the “Effect on cell viability of C. violaceum” value in the test with C. violaceum was “did not affect cell viability”. Further, the “Inhibition of violacein production” value in test [1] is “did not inhibit violacein production”. Moreover, the “Effect on quorum sensing, rhlA-GFP reporter” value in the test on rhlA-GFP reporter is listed as “no effects on quorum sensing”. Also, the “Effect on control WT-GFP reporter” value with WT-GFP was “no effects on quorum sensing”. Moreover, the “Effect on quorum sensing, pqsA-GFP reporter” value in the test on pqsA-GFP reporter is “no effects on quorum sensing”. For the same compound, the “Effect on quorum sensing, lasB-GFP reporter” value in the test with lasB-GFP reporter is given as “no effects on quorum sensing”.
